# Assay: Inhibition of PGHS-1 in human platelet rich plasma assessed as inhibition of arachidonic acid-induced platelet aggregation in human platelet rich plasma treated 5 min before arachidonic acid challenge by turbidimetry
smiles,measurement,value
COC(=O)CCCCc1cccc(C(=O)OC)c1OC(C)=O [methyl 2-acetoxy-3-(5-methoxy-5-oxopentyl)benzoate],IC50,720 µM

# From BindingDB's records for doi:10.1016/j.bmcl.2009.05.120 (Royal College of Surgeons In Ireland, 2009)
